Results on one compound are retold here after US12304917B1, “Pleuromutilin derivative containing a thiazolo[5,4-c]pyridine side chain, and a preparation method and application thereof” (SHAANXI UNIVERSITY OF SCIENCE AND TECHNOLOGY, priority 2024, dated 2025).

One data set has as its system HEK293 cells. Nature of the data set: Cell Counting Kit-8 cytotoxicity. Conditions: read-out: CC50 HEK293 Cells; CCK-8, 24 hours incubation.
Data set [1] deals with Methicillin-resistant S. aureus ATCC 33591. Nature of the data set: MIC by broth microdilution. Conditions: Staphylococcus aureus, ATCC33591|MRSA, 24 h, read-out: Minimum inhibitory concentration MRSA^b.
The subject of another data set is E. coli ATCC 25922. Nature of the data set: MIC by broth microdilution. To be noted: Escherichia coli, ATCC25922, 24 h, read-out: Minimum inhibitory concentration E.c.^h.
The subject of data set [2] is HepG2 cells, HEK293 cells and A549 cells. Nature of the data set: Cell Counting Kit-8 cytotoxicity, all tested cells as summarised in text. To be noted: at a concentration of 100 μM.
A further data set is described as follows: physchem. Conditions: thermodynamic from solid.
Data set [3] has as its system Methicillin-resistant S. epidermidis ATCC 51625. Nature of the data set: MIC by broth microdilution. Conditions: Staphylococcus epidermidis, ATCC51625|MRSE, 24 h, read-out: Minimum inhibitory concentration MRSE^e.
The subject of data set [4] is Gram-positive and Gram-negative bacteria. Nature of the data set: MIC, panel of TABLE 1 strains as summarised in text. To be noted: comparison of MIC with positive control drugs.
The subject of another data set is A549 cells. Nature of the data set: Cell Counting Kit-8 cytotoxicity. Conditions: read-out: CC50 A549 Cells; CCK-8, 24 hours incubation.
Data set [5] can be described thus: Cell Counting Kit-8 cytotoxicity. Conditions: human, HepG2 cells.
For the next data set, the system named is S. enterica ATCC14028. Nature of the data set: MIC by broth microdilution. Conditions: Salmonella enterica, ATCC14028, 24 h, read-out: Minimum inhibitory concentration S.e.^g.
For a further data set, the system named is E. coli CMCC 44103. Nature of the data set: MIC by broth microdilution. To be noted: Escherichia coli, CMCC44103, 24 h, read-out: Minimum inhibitory concentration E.c.^i.
Another data set concerns S. aureus ATCC 29213. Nature of the data set: MIC by broth microdilution. Conditions: Staphylococcus aureus, ATCC29213, 24 h, read-out: Minimum inhibitory concentration S.a.^d.
The next data set concerns A. baumannii ATCC 19606. Nature of the data set: MIC by broth microdilution. To be noted: Acinetobacter baumannii, ATCC19606, 24 h, read-out: Minimum inhibitory concentration A.b.^f.
In data set [6] the test system is methicillin-resistant Staphylococcus aureus-596. Nature of the data set: MIC against clinical isolate. It is filed as cell-based. To be noted: clinical isolate MRSA-596, read-out: Antibacterial activity (MIC) MRSA^f. The text has this: (§1) The Specific Steps are as Follows:
For data set [7], the system named is methicillin-resistant Staphylococcus aureus-171. Nature of the data set: MIC against clinical isolate. It counts as cell-based. To be noted: clinical isolate MRSA-171, read-out: Antibacterial activity (MIC) MRSA^b.
Text: as §1

Data set [8] has as its system methicillin-resistant Staphylococcus aureus-222. Nature of the data set: MIC against clinical isolate. It is filed as cell-based. To be noted: MRSA / MRSE, clinical isolate, footnote e: MRSA-222, read-out: Antibacterial activity (MIC) MRSE^e.
Text: as §1

The subject of data set [9] is carbapenem-resistant Acinetobacter baumannii-882. Nature of the data set: MIC against clinical isolate. It counts as cell-based. To be noted: clinical isolate CR-AB-882, read-out: Antibacterial activity (MIC) CR-AB^j.
Text: as §1

Data set [10] deals with methicillin-resistant Staphylococcus aureus-575. Nature of the data set: MIC against clinical isolate. It is filed as cell-based. Conditions: clinical isolate MRSA-575, read-out: Antibacterial activity (MIC) MRSA^c.
Text: as §1

The subject of data set [11] is multidrug-resistant Pseudomonas aeruginosa-126. Nature of the data set: MIC against clinical isolate. To be noted: clinical isolate MDR-PA-126, read-out: Antibacterial activity (MIC) MDR-PA^h. It counts as cell-based.
Text: as §1

Data set [12] has as its system methicillin-resistant Staphylococcus aureus-206. Nature of the data set: MIC against clinical isolate. It counts as cell-based. To be noted: clinical isolate MRSA-206, read-out: Antibacterial activity (MIC) MRSA^d.
Text: as §1

Data set [13] deals with multidrug-resistant Klebsiella pneumoniae-893. Nature of the data set: MIC against clinical isolate. It counts as cell-based. To be noted: clinical isolate MDR-KP-893.
Text: as §1

Data set [14] concerns vancomycin-resistant Enterococcus-80. Nature of the data set: MIC against clinical isolate. It counts as cell-based. Conditions: clinical isolate VRE-80, read-out: Antibacterial activity (MIC) VRE^g.
Text: as §1

In data set [15] the test system is Methicillin-resistant S. aureus ATCC 43300. Nature of the data set: MIC by broth microdilution. To be noted: Staphylococcus aureus, ATCC43300|MRSA, 24 h, read-out: Minimum inhibitory concentration MRSA^c.
Data set [16] relates to five clinical MRSA isolates, including MRSA-171, MRSA-575, MRSA-206, MRSA-222, and MRSA-596. Nature of the data set: MIC, five clinical MRSA isolates as summarised in text. It counts as cell-based, Staphylococcus aureus. To be noted: MRSA-171, MRSA-575, MRSA-206, MRSA-222, MRSA-596.
Text: as §1

`C=C[C@]1(C)C[C@@H](OC(=O)CSc2nc3cc[n+](Cc4ccc(C)cc4)cc3s2)[C@]2(C)[C@H](C)CC[C@]3(CCC(=O)[C@H]32)[C@@H](C)[C@@H]1O` [Compound I-9, 5-(4-methylbenzyl)-2-((2-(((3aR,4R,5R,7S,8S,9R,9aS,12R)-8-hydroxy-4,7,9,12-tetramethyl-3-oxo-7-vinyldecahydro-4,9a-propancyclopenta[8]cyclo-5-yl)oxy)-2-oxoethyl)thio)thiazolo[5,4-c]pyridin-5-ium]: the CC50 in the data set with HEK293 cells was 82.1 µM; with A549 cells, above 100 µM. For the same compound, the MIC stood at 0.25 µg/mL in data set [1]; 0.25 µg/mL with E. coli ATCC 25922; 0.25 µg/mL in data set [3]; 0.25 µg/mL in the data set on S. enterica ATCC14028; 0.125 µg/mL in the data set on E. coli CMCC 44103; 0.125 µg/mL with S. aureus ATCC 29213. Moreover, the MIC with A. baumannii ATCC 19606 was found to be 0.5 µg/mL; in [6], 8 µg/mL; in data set [7] it was 8 µg/mL; in data set [8] it was 4 µg/mL; in data set [9], 4 µg/mL; in data set [10] it was 4 µg/mL. Moreover, the MIC in data set [11] was 8 µg/mL; in [12], 2 µg/mL; in data set [14], 8 µg/mL; in data set [15] it was 0.25 µg/mL. For the same compound, the “toxicity to the tested cells (in words)” value in data set [2] is on record as “low toxicity”. Moreover, the concentration in solution in the data set “physchem” (solubility) came to 812 µM. Further, the “antibacterial activity compared to valnemulin and retapamulin (in words)” value in data set [4] is listed as “most advantageous antibacterial activity”. Half-maximal cytotoxicity in data set [5] (CC50 at 24 h) was put at 66.4 µM. The “Antibacterial activity (MIC) MDR-KP^i” value in [13] is 2 µg/mL. For the same compound, the “MIC, range over five clinical MRSA isolates” value in data set [16] was 2 to 8 µg/mL.
